Results reported in patent US10967035B1, “Aquaculture feed additive” (HP Ingredients Corp., priority 2020, dated 2021).

Tests used:
[1] = system: Piscirickettsia salmonis strain type LF-89; assay type: cell-based
CD8+ = assay: RT-qPCR of CD8+ expression in anterior kidney of fish fed supplemented diets; assay type: in vivo, rainbow trout; settings: diet 15 days
Procedure: (§1) We compared several aquaculture diets suitable for use in commercial aquaculture. The standard diet was […] commercially available from Salmones […]., Los Angeles, Chile. […] Each diet was administered to each of three (3) cages for 15 days. […] We extracted total RNA from each sample, and then quantified the expression of IL-12 and CD8^+ using real-time quantitative PCR, according to the standardized protocols of the Aquatic Organisms Biotechnology Lab of the Universidad Austral de Chile.

IL-12 = assay: RT-qPCR of IL-12 expression in anterior kidney of fish fed supplemented diets; assay type: in vivo, rainbow trout; settings: diet 15 days; NC 0.5 kg/ton, AP 1 kg/ton of feed
Procedure: as §1

Row | Compound | inhibitory effect on bacterial growth ([1]; at the analyzed concentrations (0.98 to 500)) | CD8+ expression in anterior kidney compared to control group (CD8+; NC 0.5 kg/ton, AP 1 kg/ton of feed) | stimulation of the immune activity markers compared to control (CD8+; in vivo pilot test) | IL-12 expression in anterior kidney compared to control group (IL-12) | mean inhibition in bacterial growth ([1]; 64, 32 and 16 μg/mL) [fold]
1 | C=C1CC[C@@H]2[C@](C)(CO)[C@H](O)CC[C@@]2(C)[C@@H]1C/C=C1/C(=O)OC[C@H]1O [AP, andrographolide] | no significant differences in the inhibitory effect | increase the expression of CD8+ | 2.0 | depress the expression of IL-12 | –
2 | CS(=O)(=O)c1ccc([C@@H](O)[C@@H](CF)NC(=O)C(Cl)Cl)cc1 [florfenicol] | – | – | – | – | 5
